Laboratory results published in paper PMC4067149 (Biochemistry, 2014).

Target: T1, DEBS AT3 (Saccharopolyspora erythraea, UniProt Q03132)
T1 sequence (Q03132 460-880 limits assumed): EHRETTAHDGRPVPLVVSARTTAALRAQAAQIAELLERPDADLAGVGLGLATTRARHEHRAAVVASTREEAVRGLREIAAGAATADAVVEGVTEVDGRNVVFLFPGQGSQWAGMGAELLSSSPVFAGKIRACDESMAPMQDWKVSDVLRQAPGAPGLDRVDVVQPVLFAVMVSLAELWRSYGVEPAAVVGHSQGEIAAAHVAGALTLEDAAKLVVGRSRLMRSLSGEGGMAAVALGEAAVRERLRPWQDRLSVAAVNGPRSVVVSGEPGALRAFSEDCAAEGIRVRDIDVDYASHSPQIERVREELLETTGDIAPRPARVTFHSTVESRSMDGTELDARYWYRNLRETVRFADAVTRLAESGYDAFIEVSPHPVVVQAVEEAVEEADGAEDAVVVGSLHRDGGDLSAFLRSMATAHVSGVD
Test: alpha-KGDH coupled fluorometric NADH assay, hydrolysis
Assay type: biochemical
Conditions: no ACP, pH 7.6, 10% glycerol

How did the “alpha-KGDH coupled fluorometric NADH assay, hydrolysis” value turn out when `CC(C(=O)O)C(=O)SCCNC(=O)CCNC(=O)[C@H](O)C(C)(C)COP(=O)(O)OP(=O)(O)OC[C@H]1O[C@@H](n2cnc3c(N)ncnc32)[C@H](O)[C@@H]1OP(=O)(O)O` (stereo partly shown) [MMCoA, methylmalonyl-CoA] was run?
Its value is “DEBS AT3 showed the highest rate of hydrolysis with its natural substrate, methylmalonyl-CoA”.
